Reference: US9837621B2, “Compound, light-emitting element, light-emitting device, electronic device, and lighting device” (Semiconductor Energy Laboratory Co., Ltd., priority 2014, dated 2017)

Key:
physchem = assay type: physicochemical; details: organic solvent or mixture, thermodynamic from solid
Source text: The compounds which are embodiments of the present invention and used in this example were 2mFDBtPDBq (sample 1) and 2mDBTBPDBq-VIII (sample 2). For the methods for synthesizing the compounds, Synthesis Examples 1 and 2 can be referred to. As comparative compounds, 2-[3′-(dibenzothiophen-4-yl)biphenyl-3-yl]dibenzo[f,h]quinoxaline (abbreviation: 2mDBTBPDBq-II) (comparative sample 3) and 2-[3-(dibenzothiophen-4-yl)phenyl]dibenzo[f,h]quinoxaline (abbreviation: 2mDBTPDBq-II) (comparative sample 4) were used in this example. The purity of each compound was 99.9%. The chemical formulae of the compounds are shown below.
The solvents used in this example were the four kinds of solvents: toluene, chloroform, ethyl acetate, and acetone.
A method for examining the solubility of the compound of each sample is described. First, 10 mg of the compound was put into a small bottle and to this was added 1 mL of a solvent. Then, whether the compound was dissolved at room temperature or not was checked. When the compound was not dissolved at room temperature, ultrasonic wave irradiation and then heating using a dryer were performed, so that whether the compound was dissolved or not was checked.
When the compound was not dissolved after heating, the volume of the solvent was increased to 10 mL, so that whether the compound was dissolved at room temperature or not was checked. […]

[1] = Thermogravimetry-differential thermal analysis (TG-DTA), 5% weight loss temperature; assay type: physicochemical; details: nitrogen stream 200 mL/min, normal pressure, temperature rising rate 10° C./min
Protocol: Thermogravimetry-differential thermal analysis (TG-DTA) was performed on 2mFDBtPDBq. The measurement was conducted by using a high vacuum differential type differential thermal balance (TG/DTA 2410SA, manufactured by Bruker AXS K.K.). The measurement was conducted under a nitrogen stream (flow rate: 200 mL/min) at normal pressure at a temperature rising rate of 10° C./min. It was found from the relationship between weight and temperature (thermogravimetry) that the 5% weight loss temperature of 2mFDBtPDBq was 495° C.
TG-DTA was performed on 2mDBtBPDBq-VIII. The conditions of the measurement were similar to those in Example 1. It was found from thermogravimetry that the 5% weight loss temperature of 2mDBtBPDBq-VIII was 500° C. or higher.

Compound	solubility (physchem) [µg/mL]	5% weight loss temperature [1] [°C]
CC1(C)c2ccccc2-c2ccc(-c3cccc4c3sc3c(-c5cccc(-c6cccc(-c7cnc8c9ccccc9c9ccccc9c8n7)c6)c5)cccc34)cc21 [2mDBtBPDBq-VIII, 2-(3-{3-[6-(9,9-dimethylfluoren-2-yl)dibenzothiophen-4-yl]phenyl}phenyl)dibenzo[f,h]quinoxaline]	> 10000	≥ 500
CC1(C)c2ccccc2-c2ccc(-c3cccc4c3sc3c(-c5cccc(-c6cnc7c8ccccc8c8ccccc8c7n6)c5)cccc34)cc21 [2mFDBtPDBq, 2-{3-[6-(9,9-dimethylfluoren-2-yl)dibenzothiophen-4-yl]phenyl}dibenzo[f,h]quinoxaline]	> 10000	495
